One data set deals with T1, α1A adrenoceptor (Rattus norvegicus, UniProt P43140).
T1 construct: from tissue; host or cells: rat submaxillary gland membranes
T1 sequence (P43140 1-466): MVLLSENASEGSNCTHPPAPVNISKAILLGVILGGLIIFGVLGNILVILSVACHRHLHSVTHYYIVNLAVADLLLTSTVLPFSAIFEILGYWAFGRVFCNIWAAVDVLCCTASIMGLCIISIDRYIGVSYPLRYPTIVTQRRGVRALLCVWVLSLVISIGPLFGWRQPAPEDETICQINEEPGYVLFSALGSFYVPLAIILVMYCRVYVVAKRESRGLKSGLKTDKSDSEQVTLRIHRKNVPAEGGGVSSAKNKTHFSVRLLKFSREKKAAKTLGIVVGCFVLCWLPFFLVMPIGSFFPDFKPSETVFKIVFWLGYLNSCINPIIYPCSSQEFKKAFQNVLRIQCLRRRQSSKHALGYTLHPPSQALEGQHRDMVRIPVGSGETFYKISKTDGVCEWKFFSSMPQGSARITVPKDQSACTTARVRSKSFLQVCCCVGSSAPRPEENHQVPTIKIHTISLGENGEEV
Nature of the data set: Receptor binding assay, displacement of [3H]prazosin, rat submaxillary membranes. The settings on record: for Selectivity α1B/α1A: ratio of Ki α1B (rat liver) / α1A (rat submaxillary). The method, then: Receptor binding assays were performed using native α-adrenoceptors.
(§1) Submaxillary glands were isolated immediately after sacrifice. The liver was perfused with buffer (Tris HCl 50 mM, NaCl 100 mM, 10 mM EDTA pH 7.4). The tissues were homogenised in 10 volumes of buffer (Tris HCl 50 mM, NaCl 100 mM, EDTA 10 mM, pH 7.4). The homogenate was filtered through two layers of wet gauze and filtrate was centrifuged at 500 g for 10 min. The supernatant was subsequently centrifuged at 40,000 g for 45 min. The pellet thus obtained was resuspended in the same volume of assay buffer (Tris HCl 50 mM, EDTA 5 mM, pH 7.4) and were stored at −70° C. until the time of assay.
(§2) The membrane homogenates (150-250 μg protein) were incubated in 250 μl of assay buffer (Tris HCl 50 mM, EDTA 5 mM, pH 7.4) at 24-25° C. for 1 h. Non-specific binding was determined in the presence of 300 nM prazosin. The incubation was terminated by vacuum filtration over GF/B fibre filters. The filters were then washed with ice cold 50 mM Tris HCl buffer (pH 7.4). The filtermats were dried and bound radioactivity retained on filters was counted.The IC50 & Kd were estimated by using the non-linear curve fitting program using G Pad Prism software.
In general terms: Displacement assays read how much labelled ligand stays bound in the presence of the test substance.

The target in a further data set is T2, α1B adrenoceptor (Rattus norvegicus, UniProt P15823).
T2 construct: from tissue; host or cells: rat liver membranes
T2 sequence (P15823 1-515): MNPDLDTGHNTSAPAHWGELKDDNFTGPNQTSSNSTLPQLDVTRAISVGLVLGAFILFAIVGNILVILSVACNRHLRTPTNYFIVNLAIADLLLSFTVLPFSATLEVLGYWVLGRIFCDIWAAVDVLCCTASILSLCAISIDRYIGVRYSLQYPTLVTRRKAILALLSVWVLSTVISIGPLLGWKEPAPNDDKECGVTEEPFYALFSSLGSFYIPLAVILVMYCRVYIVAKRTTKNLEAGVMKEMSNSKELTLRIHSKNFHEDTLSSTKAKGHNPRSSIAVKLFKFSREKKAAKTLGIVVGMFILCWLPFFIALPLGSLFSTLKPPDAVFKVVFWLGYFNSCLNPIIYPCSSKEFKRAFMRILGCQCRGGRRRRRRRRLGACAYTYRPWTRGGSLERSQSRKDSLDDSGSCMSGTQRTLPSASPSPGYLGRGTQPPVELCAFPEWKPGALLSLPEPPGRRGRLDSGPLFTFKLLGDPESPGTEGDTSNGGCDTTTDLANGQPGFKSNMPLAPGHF
Nature of the data set: Receptor binding assay, displacement of [3H]prazosin, rat liver membranes. The method, then: Receptor binding assays were performed using native α-adrenoceptors. The affinity of different compounds for α1A and α1B adrenoceptor subtypes was evaluated by studying their ability to displace specific [^3H]prazosin binding from the membranes of rat submaxillary and liver respectively (Michel et al, Br J Pharmacol, 98, 883-889 (1989)). The binding assays were performed according to U'Prichard et al. (Eur J Pharmacol, 50:87-89 (1978)) with minor modifications.
as §1
as §2, with “software. The value of inhibition constant Ki was calculated from competitive binding studies by using Cheng & Prusoff equation (Cheng & Prusoff, Biochem Pharmacol, 1973,22: 3099-3108), Ki=IC50/(1+L/Kd) where L is the concentration of [^3H]prazosin used in the particular experiment (Table I).” for “software.”

Where [1] appears, read: [3H]prazosin displacement, rat submaxillary membranes, read-out: α1A (Rat submaxillary) Ki.
Setting [2] is: [3H]prazosin displacement, rat liver membranes, read-out: α1B (Rat liver) Ki.

A word on the pKi: it is the negative decadic logarithm of the Ki, by convention in mol/L. For orientation: melting point means the temperature, or range, at which the solid turns liquid.

Molecules are shown by their SMILES. pKi: −log10 of the molar value. Counter-ions that a name gives are not always drawn. Like-named read-outs stand apart in the source and are kept apart here.

`Cl.O=C1C2CC=CCC2C(=O)N1CCCN1CCN(c2ccc(F)cc2F)CC1` (stereo not shown) [Compound 10, 2-[3-{4-(2,4-Difluorophenyl)piperazin-1-yl}propyl]-3a,4,7,7a-tetrahydro-1H-isoindole-1,3(2H)-dione hydrochloride]: the melting point fell in the range of 218.2 to 219 °C. Moreover, the negative logarithm of the Ki (pKi) on α1A adrenoceptor (setting [1]) is 7.21. Moreover, the “Selectivity α1B/α1A” value at α1A adrenoceptor is reported as 2.7. Further, the pKi at α1B adrenoceptor (setting [2]) was 6.78.
Molecule `Cl.O=C1C2CC=CCC2C(=O)N1CCCN1CCN(c2ccc([N+](=O)[O-])cc2)CC1` (stereo not shown) [Compound 16, 2-[3-{4-(4-Nitrophenyl)piperazin-1-yl}propyl]-3a,4,7,7a-tetrahydro-1H-isoindole-1,3(2H)-dione hydrochloride] displayed a melting point of 259.5 to 261 °C. The pKi on α1A adrenoceptor (setting [1]) is less than 6.30. For the same molecule, the “Selectivity α1B/α1A” value on α1A adrenoceptor amounted to 1. On α1B adrenoceptor (setting [2]), the pKi is less than 6.30.
On to `Cl.O=C1C2CC=CCC2C(=O)N1CCCN1CCN(c2cccc(C(F)(F)F)c2)CC1` (stereo not shown) [Compound 05, 2-[3-{4-(3-Trifluoromethylphenyl)piperazin-1-yl}propyl]-3a,4,7,7a-tetrahydro-1H-isoindole-1,3(2H)-dione hydrochloride], for which the melting point fell in the range of 215 to 217 °C. Besides, at α1A adrenoceptor, the pKi was 6.59 and the “Selectivity α1B/α1A” value came out at 2. On α1B adrenoceptor, this molecule showed a pKi of less than 6.30.
`COc1ccc(N2CCN(CCCN3C(=O)C4CC=CCC4C3=O)CC2)c(OC)c1.Cl` (stereo not shown) [Compound 21, 2-[3-{4-(2,4-Dimethoxyphenyl)piperazin-1-yl}propyl]-3a,4,7,7a-tetrahydro-1H-isoindole-1,3(2H)-dione hydrochloride] had a melting point of 226 to 227 °C. On α1A adrenoceptor (setting [1]), the pKi was less than 6.30. The “Selectivity α1B/α1A” value on α1A adrenoceptor was 1. Besides, the pKi on α1B adrenoceptor (setting [2]) was less than 6.30.
For `Cc1ccccc1N1CCN(CCCN2C(=O)[C@H]3CC=CC[C@H]3C2=O)CC1` [Compound 03, 2-[3-{4-(2-Methylphenyl)piperazin-1-yl}propyl]-3a,4,7,7a-tetrahydro-1H-isoindole-1,3(2H)-dione hydrochlolide], the figures for the pKi at α1A adrenoceptor (setting [1]) and at α1B adrenoceptor (setting [2]) were 7.49 and 6.77, respectively. In addition, the “Selectivity α1B/α1A” value at α1A adrenoceptor is 5.
For `Cc1ccc(N2CCN(CCCN3C(=O)C4CC=CCC4C3=O)CC2)cc1Cl.Cl` (stereo not shown) [Compound 17, 2-[3-{4-(3-Chloro-4-methylphenyl)piperazin-1-yl}propyl]-3a,4,7,7a-tetrahydro-1H-isoindole-1,3(2H)-dione hydrochloride], the melting point lay within 248 to 249 °C. For the same molecule, at α1A adrenoceptor (setting [1]), the negative logarithm of the Ki (pKi) is 7.32. The “Selectivity α1B/α1A” value on α1A adrenoceptor was 0.78. For the same molecule, the pKi on α1B adrenoceptor (setting [2]) was 7.43.
As to `COc1cccc(O)c1N1CCN(CCCN2C(=O)C3CC=CCC3C2=O)CC1.Cl` (stereo not shown) [Compound 28, 2-[3-{4-(2-Methoxy-6-hydroxyphenyl)piperazin-1-yl}propyl]-3a,4,7,7a-tetrahydro-1H-isoindole-1,3(2H)-dione hydrochloride], the melting point lay in the range of 267 to 268 °C. For the same molecule, at α1A adrenoceptor (setting [1]), the pKi was less than 6.30. Further, the “Selectivity α1B/α1A” value at α1A adrenoceptor is 1. Besides, the negative-log Ki (pKi) at α1B adrenoceptor (setting [2]) was less than 6.30.
Turning to `CC(C)(C)c1ccc(N2CCN(CCCN3C(=O)C4CC=CCC4C3=O)CC2)cc1.Cl` (stereo not shown) [Compound 27, 2-[3-{4-(4-tert-Butylphenyl)piperazin-1-yl}propyl]-3a,4,7,7a-tetrahydro-1H-isoindole-1,3(2H)-dione hydrochloride], the melting point is 264 to 265 °C. In addition, the pKi on α1A adrenoceptor (setting [1]) was less than 6.30. The “Selectivity α1B/α1A” value at α1A adrenoceptor came to 1. For the same molecule, the pKi at α1B adrenoceptor (setting [2]) is less than 6.30.
In turn, `COc1ccc(OC)c(N2CCN(CCCN3C(=O)C4CC=CCC4C3=O)CC2)c1.Cl` (stereo not shown) [Compound 26, 2-[3-{4-(2,5-Dimethoxyphenyl)piperazin-1-yl}propyl]-3a,4,7,7a-tetrahydro-1H-isoindole-1,3(2H)-dione hydrochloride] gave a melting point of 193 to 195 °C. Besides, the pKi on α1A adrenoceptor (setting [1]) is 7.42. For the same molecule, the “Selectivity α1B/α1A” value on α1A adrenoceptor turned out to be 13. Further, the pKi on α1B adrenoceptor (setting [2]) is less than 6.30.
For `COc1cc(F)ccc1N1CCN(CCCN2C(=O)C3CC=CCC3C2=O)CC1.Cl` (stereo not shown) [Compound 18, 2-[3-{4-(4-Fluoro-2-methoxyphenyl)piperazin-1-yl}propyl]-3a,4,7,7a-tetrahydro-1H-isoindole-1,3(2H)-dione hydrochloride] the same measures were 232 to 233 °C, 8.00, 27 and 6.57.
Molecule `COc1ccccc1N1CCN(CC(C)CN2C(=O)C3CC=CCC3C2=O)CC1.Cl` (stereo not shown) [Compound 30, 2-[3-{4-(2-Methoxyphenyl)piperazin-1-yl}-2-methylpropyl]-3a,4,7,7a-tetrahydro-1H-isoindole-1,3(2H)-dione hydrochloride] registered a melting point of 184 to 185 °C. The pKi at α1A adrenoceptor (setting [1]) was 7.32. In addition, the “Selectivity α1B/α1A” value on α1A adrenoceptor was 13. Moreover, the pKi at α1B adrenoceptor (setting [2]) was 6.21.
For `Cl.O=C1C2CC=CCC2C(=O)N1CCCN1CCN(c2ccc(Cl)cc2Cl)CC1` (stereo not shown) [Compound 20, 2-[3-{4-(2,4-Dichlorophenyl)piperazin-1-yl}propyl]-3a,4,7,7a-tetrahydro-1H-isoindole-1,3(2H)-dione hydrochloride] the same measures were 210 to 211 °C, 7.33, 11 and less than 6.30.
On the same counts, the results for `Cl.O=C1C2CC=CCC2C(=O)N1CCCN1CCN(c2ccccc2F)CC1` (stereo not shown) [Compound 06, 2-[3-{4-(2-Fluorophenyl)piperazin-1-yl}propyl]-3a,4,7,7a-tetrahydro-1H-isoindole-1,3(2H)-dione hydrochloride] are 203 to 204 °C, 7.44, 13 and 6.33.
Molecule `Cl.O=C1C2CC=CCC2C(=O)N1CCCN1CCN(Cc2ccccc2)CC1` (stereo not shown) [Compound 14, 2-[3-{4-(Benzyl)piperazin-1-yl}propyl]-3a,4,7,7a-tetrahydro-1H-isoindole-1,3(2H)-dione hydrochloride] yielded a melting point of 275 to 278 °C. Besides, on α1A adrenoceptor (setting [1]), the pKi was less than 6.30. The “Selectivity α1B/α1A” value on α1A adrenoceptor stood at 1. Also, the negative logarithm of the Ki (pKi) on α1B adrenoceptor (setting [2]) is less than 6.30.
`O=C1[C@H]2CC=CC[C@H]2C(=O)N1CCCN1CCN(C(c2ccc(F)cc2)c2ccc(F)cc2)CC1` [Compound 19, 2-[3-{4-(Bis-4-fluorophenyl)methylpiperazin-1-yl}propyl]-3a,4,7,7a-tetrahydro-1H-isoindole-1,3(2H)-dione hydrochloride]: the values for the pKi on α1A adrenoceptor (setting [1]) and on α1B adrenoceptor (setting [2]) were 8.28 and 7.09, respectively. In addition, the “Selectivity α1B/α1A” value at α1A adrenoceptor stood at 15.

For the origin of these results see patent US6914064B2, “1,4-Disubstituted piperazine derivatives useful as uro-selective α1-adrenoceptor blockers” (Ranbaxy Laboratories Limited, priority 2000, dated 2005).
